± gives the expanded uncertainty stated by the source.
What was measured:
[1] = 298.15 K; 101 kPa; Liquid; Vibrating tube method
[2] = excess molar enthalpy (molar enthalpy of mixing); xn = mol fraction of the nth substance listed; settings: 298.15 K, 101 kPa, Liquid, Calvet calorimetry
[3] = xn = mol fraction of the nth substance listed; settings: 298.15 K, 101 kPa, Liquid, Vibrating tube method

CCCOC(C)=O [propyl ethanoate]
Settings	mass density [kg/m3]
[1]	882.08 ± 0.23

CCCOC=O [propyl methanoate]
Settings	mass density [kg/m3]
[1]	899.81 ± 1.6

CCCOC(=O)CC [propyl propanoate]
Settings	mass density [kg/m3]
[1]	875.61 ± 0.23

CCCOC(=O)CCC [propyl butanoate] + ClCCCCCCl
Settings	excess molar enthalpy [kJ/mol]	mass density [kg/m3]
[2], x1 = 0.0559	-0.013 ± 0.001	–
[2], x1 = 0.1285	-0.036 ± 0.001	–
[2], x1 = 0.2091	-0.07 ± 0.002	–
[2], x1 = 0.2908	-0.108 ± 0.003	–
[2], x1 = 0.3699	-0.147 ± 0.003	–
[2], x1 = 0.4417	-0.188 ± 0.004	–
[2], x1 = 0.4998	-0.211 ± 0.005	–
[2], x1 = 0.553	-0.22 ± 0.005	–
[2], x1 = 0.5757	-0.219 ± 0.005	–
[2], x1 = 0.6397	-0.208 ± 0.005	–
[2], x1 = 0.71	-0.186 ± 0.004	–
[2], x1 = 0.7828	-0.154 ± 0.004	–
[2], x1 = 0.8561	-0.111 ± 0.003	–
[2], x1 = 0.9304	-0.061 ± 0.002	–
[3], x1 = 0.0527	–	1081.35 ± 5.8
[3], x1 = 0.1057	–	1067.82 ± 5.1
[3], x1 = 0.1578	–	1054.69 ± 4.5
[3], x1 = 0.2095	–	1041.82 ± 4
[3], x1 = 0.2663	–	1027.99 ± 3.5
[3], x1 = 0.3782	–	1001.4 ± 2.6
[3], x1 = 0.4944	–	974.66 ± 1.8
[3], x1 = 0.6144	–	947.96 ± 1.2
[3], x1 = 0.7409	–	920.76 ± 0.77
[3], x1 = 0.804	–	907.58 ± 0.59
[3], x1 = 0.8678	–	894.43 ± 0.45
[3], x1 = 0.9363	–	880.61 ± 0.32
[3], x1 = 1	–	867.9 ± 0.23

ClCCCCCCl [1,5-dichloropentane] + CCCOC(=O)CC
Settings	excess molar enthalpy [kJ/mol]	mass density [kg/m3]
[2], x2 = 0.0588	-0.017 ± 0.001	–
[2], x2 = 0.1375	-0.057 ± 0.002	–
[2], x2 = 0.2257	-0.101 ± 0.003	–
[2], x2 = 0.3118	-0.157 ± 0.004	–
[2], x2 = 0.3922	-0.207 ± 0.005	–
[2], x2 = 0.4517	-0.241 ± 0.005	–
[2], x2 = 0.4693	-0.247 ± 0.006	–
[2], x2 = 0.5239	-0.255 ± 0.006	–
[2], x2 = 0.5982	-0.246 ± 0.006	–
[2], x2 = 0.6783	-0.22 ± 0.005	–
[2], x2 = 0.7663	-0.178 ± 0.004	–
[2], x2 = 0.855	-0.12 ± 0.003	–
[2], x2 = 0.9359	-0.061 ± 0.002	–
[3], x2 = 0.0586	–	1081.99 ± 5.7
[3], x2 = 0.1204	–	1068.2 ± 5
[3], x2 = 0.1736	–	1056.39 ± 4.4
[3], x2 = 0.2854	–	1031.55 ± 3.4
[3], x2 = 0.3403	–	1019.42 ± 2.9
[3], x2 = 0.4006	–	1006.12 ± 2.5
[3], x2 = 0.5242	–	978.97 ± 1.7
[3], x2 = 0.635	–	954.74 ± 1.2
[3], x2 = 0.6961	–	941.43 ± 0.94
[3], x2 = 0.7548	–	928.67 ± 0.74
[3], x2 = 0.8219	–	914.07 ± 0.56
[3], x2 = 0.8809	–	901.3 ± 0.42
[3], x2 = 0.942	–	888.12 ± 0.31

CCCOC=O [propyl methanoate] + ClCCCl
Settings	excess molar enthalpy [kJ/mol]	mass density [kg/m3]
[2], x1 = 0.074	-0.04 ± 0.001	–
[2], x1 = 0.1687	-0.088 ± 0.002	–
[2], x1 = 0.2733	-0.154 ± 0.004	–
[2], x1 = 0.3675	-0.2 ± 0.005	–
[2], x1 = 0.4473	-0.241 ± 0.005	–
[2], x1 = 0.5035	-0.254 ± 0.006	–
[2], x1 = 0.5082	-0.255 ± 0.006	–
[2], x1 = 0.5746	-0.25 ± 0.006	–
[2], x1 = 0.6509	-0.238 ± 0.005	–
[2], x1 = 0.7385	-0.205 ± 0.005	–
[2], x1 = 0.8389	-0.144 ± 0.003	–
[2], x1 = 0.9272	-0.077 ± 0.002	–
[3], x1 = 0.0502	–	1224.05 ± 7.8
[3], x1 = 0.0994	–	1203.36 ± 7.2
[3], x1 = 0.1495	–	1182.95 ± 6.7
[3], x1 = 0.2004	–	1162.75 ± 6.2
[3], x1 = 0.2543	–	1141.88 ± 5.7
[3], x1 = 0.308	–	1121.58 ± 5.2
[3], x1 = 0.3635	–	1101.24 ± 4.8
[3], x1 = 0.4207	–	1080.82 ± 4.3
[3], x1 = 0.4795	–	1060.31 ± 3.9
[3], x1 = 0.5379	–	1040.49 ± 3.5
[3], x1 = 0.599	–	1020.32 ± 3.2
[3], x1 = 0.6634	–	999.69 ± 2.9
[3], x1 = 0.7281	–	979.46 ± 2.5
[3], x1 = 0.7928	–	959.73 ± 2.3
[3], x1 = 0.8612	–	939.48 ± 2
[3], x1 = 1	–	899.81 ± 1.6

ClCCCCCl [1,4-dichlorobutane] + CCCOC(C)=O
Settings	excess molar enthalpy [kJ/mol]	mass density [kg/m3]
[2], x2 = 0.0555	-0.02 ± 0.001	–
[2], x2 = 0.1316	-0.055 ± 0.002	–
[2], x2 = 0.2183	-0.098 ± 0.003	–
[2], x2 = 0.3079	-0.15 ± 0.004	–
[2], x2 = 0.3915	-0.201 ± 0.005	–
[2], x2 = 0.456	-0.23 ± 0.005	–
[2], x2 = 0.4663	-0.234 ± 0.005	–
[2], x2 = 0.4979	-0.241 ± 0.005	–
[2], x2 = 0.5721	-0.236 ± 0.005	–
[2], x2 = 0.6576	-0.219 ± 0.005	–
[2], x2 = 0.7494	-0.187 ± 0.004	–
[2], x2 = 0.8443	-0.133 ± 0.003	–
[2], x2 = 0.9296	-0.073 ± 0.002	–
[3], x2 = 0.0583	–	1118.51 ± 6.2
[3], x2 = 0.1175	–	1103.2 ± 5.4
[3], x2 = 0.1743	–	1088.55 ± 4.7
[3], x2 = 0.232	–	1073.72 ± 4.1
[3], x2 = 0.3494	–	1043.76 ± 3
[3], x2 = 0.465	–	1014.55 ± 2.1
[3], x2 = 0.523	–	999.98 ± 1.8
[3], x2 = 0.5845	–	984.6 ± 1.4
[3], x2 = 0.6424	–	970.19 ± 1.2
[3], x2 = 0.7011	–	955.64 ± 0.94
[3], x2 = 0.7618	–	940.61 ± 0.73
[3], x2 = 0.8813	–	911.2 ± 0.43
[3], x2 = 0.9397	–	896.91 ± 0.32

CCCOC(=O)CCC [propyl butanoate]
Settings	mass density [kg/m3]
[1]	867.9 ± 0.23
